This note sets out measurements from ChEMBL document CHEMBL1795317, “Synthesis and antitubercular evaluation of amidoalkyl dibenzofuranols and 1H-benzo[2,3]benzofuro[4,5-e][1,3]oxazin-3(2H)-ones” (Bioorg Med Chem Lett, 2011).

The subject of data set [1] is Mycobacterium tuberculosis. Kind of data set: Antimicrobial activity against Mycobacterium tuberculosis H37Rv ATCC 27294 after 28 days by agar dilution method. The settings on record: H37Rv ATCC 27294, 672 h. The data set is classed as functional. (In agar dilution, organisms are placed on agar that contains the substance at set levels.)
Data set [2] in a line: Lipophilicity, log P of the compound. The format is physicochemical. The settings on record: octanol/water.

Converted amounts (≈) assume the structure as drawn.

Take `CC(=O)NC(c1ccccc1)c1c(O)ccc2oc3ccccc3c12` (stereo not given): the minimum inhibitory concentration (MIC) (usually the lowest concentration that inhibits growth of the organism) in data set [1] stood at 6.25 mg/L (≈ 18.9 µM). In addition, in data set [2], the logP (in general, a log measure of how a compound divides between an organic and an aqueous phase) came to 3.
`CC(=O)NC(c1ccc(Cl)cc1)c1c(O)ccc2oc3ccccc3c12` (stereo not given) came in with a minimum inhibitory concentration (MIC) in data set [1] of 6.25 mg/L (≈ 17.1 µM). In data set [2], this compound showed a logP of 3.56.
In turn, `CC(=O)NC(c1ccc(Br)cc1)c1c(O)ccc2oc3ccccc3c12` (stereo not given) gave a minimal inhibitory concentration (MIC) in data set [1] of 6.25 mg/L (≈ 15.2 µM). The compound also had a logP in data set [2] of 3.83.
As for `COc1ccc(C(NC(C)=O)c2c(O)ccc3oc4ccccc4c23)cc1` (stereo not given), in data set [1], the lowest concentration to inhibit growth (MIC) was 6.25 mg/L (≈ 17.3 µM). For the same compound, the log partition coefficient (logP) in data set [2] worked out at 2.87.
The compound `COc1cc(C(NC(C)=O)c2c(O)ccc3oc4ccccc4c23)cc(OC)c1OC` (stereo not given) gave an MIC in data set [1] of 12.5 mg/L (≈ 29.7 µM). This compound also displayed a lipophilicity (logP) in data set [2] of 2.62.
With `O=C(NC(c1ccc(Cl)cc1)c1c(O)ccc2oc3ccccc3c12)c1ccccc1` (stereo not given), in data set [1], it took 12.5 mg/L (≈ 29.2 µM) to inhibit growth (MIC). In data set [2], this compound registered a log partition coefficient (logP) of 5.46.
In the case of `COc1cc(C(NC(=O)c2ccccc2)c2c(O)ccc3oc4ccccc4c23)cc(OC)c1OC` (stereo not given), it took 12.5 mg/L (≈ 25.9 µM) to inhibit growth in data set [1] (MIC). In addition, the logP in data set [2] turned out to be 4.52.
Regarding `NC(=O)NC(c1ccc(Cl)cc1)c1c(O)ccc2oc3ccccc3c12` (stereo not given), inhibition of growth in data set [1] (MIC) required 3.13 mg/L (≈ 8.53 µM). In data set [2], this compound came in with a logP of 3.23.
As for `NC(=O)NC(c1ccc(Br)cc1)c1c(O)ccc2oc3ccccc3c12` (stereo not given), 3.13 mg/L (≈ 7.61 µM) was the least that counted as inhibitory in data set [1] (MIC). In data set [2], this compound returned a logP of 3.5.
On to `COc1ccc(C(NC(N)=O)c2c(O)ccc3oc4ccccc4c23)cc1` (stereo not given), for which, in data set [1], it took 6.25 mg/L (≈ 17.2 µM) to inhibit growth (MIC). Also, the log partition coefficient (logP) in data set [2] was 2.55.
As for `COc1cc(C(NC(N)=O)c2c(O)ccc3oc4ccccc4c23)cc(OC)c1OC` (stereo not given), the minimal inhibitory concentration (MIC) in data set [1] came out at 12.5 mg/L (≈ 29.6 µM). Moreover, in data set [2], the logP amounted to 2.29.
`O=C1NC(c2ccccc2)c2c(ccc3oc4ccccc4c23)O1` (stereo not given): the MIC in data set [1] came to 3.13 mg/L (≈ 9.93 µM). Also, the logP in data set [2] came out at 3.61.
In turn, `O=C1NC(c2ccc(Cl)cc2)c2c(ccc3oc4ccccc4c23)O1` (stereo not given) came in with a minimal inhibitory concentration (MIC) in data set [1] of 1.56 mg/L (≈ 4.46 µM). The lipophilicity (logP) in data set [2] was 4.16.
For the compound `O=C1NC(c2ccc(Br)cc2)c2c(ccc3oc4ccccc4c23)O1` (stereo not given), in data set [1], the minimal inhibitory concentration (MIC) turned out to be 1.56 mg/L (≈ 3.96 µM). The compound also came in with a logP in data set [2] of 4.43.
The compound `COc1ccc(C2NC(=O)Oc3ccc4oc5ccccc5c4c32)cc1` (stereo not given) registered a minimal inhibitory concentration (MIC) in data set [1] of 6.25 mg/L (≈ 18.1 µM). For the same compound, the lipophilicity (logP) in data set [2] came out at 3.48.
`COc1cc(C2NC(=O)Oc3ccc4oc5ccccc5c4c32)cc(OC)c1OC` (stereo not given) displayed a minimum inhibitory concentration (MIC) in data set [1] of 12.5 mg/L (≈ 30.8 µM). This compound also showed a log partition coefficient (logP) in data set [2] of 3.23.
Consider `CC[C@@H](CO)NCCN[C@@H](CC)CO` [ETHAMBUTOL], for which it took 3.13 mg/L (≈ 15.3 µM) to inhibit growth in data set [1] (MIC).
Same read-out and setting: the same measure for `NNC(=O)c1ccncc1` [ISONIAZID]: 0.1 mg/L (≈ 0.729 µM).
For `NC(=O)c1cnccn1` [PYRAZINAMIDE], in data set [1], the minimum inhibitory concentration (MIC) worked out at 50 mg/L (≈ 406 µM).
